# Experimental data as given in patent US12419848B2, “Treatment of hyperinflammatory syndrome” (priority 2020, dated 2025).
# Counter-ions that a name gives are not always drawn.
# Key:
# myasthenia gravis = assay: Example 24: myasthenia gravis; type: in vivo, human
# Protocol: A person was diagnosed having myasthenia gravis. They suffered from muscle weakness of the arms and hand after physical activity. The diagnosis was confirmed with EMG and positive test for antibodies against acetylcholine receptor (AChR). They were treated with oral anticholinesterase drug (mestinon) 4×60 mg/d. […] The treatment was continued for 2 weeks.
# [1] = tested on: psoriatic arthritis, herpes zoster infection; assay: Example 11: psoriatic arthritis with herpes zoster
# P2X7R = target: T1, P2X7R (Homo sapiens, UniProt Q99572); design: endogenous in cells; host or cells: human subjects (clinical trials reported elsewhere); conditions: administered orally; cited from earlier work
# T1 sequence (Q99572 1-595): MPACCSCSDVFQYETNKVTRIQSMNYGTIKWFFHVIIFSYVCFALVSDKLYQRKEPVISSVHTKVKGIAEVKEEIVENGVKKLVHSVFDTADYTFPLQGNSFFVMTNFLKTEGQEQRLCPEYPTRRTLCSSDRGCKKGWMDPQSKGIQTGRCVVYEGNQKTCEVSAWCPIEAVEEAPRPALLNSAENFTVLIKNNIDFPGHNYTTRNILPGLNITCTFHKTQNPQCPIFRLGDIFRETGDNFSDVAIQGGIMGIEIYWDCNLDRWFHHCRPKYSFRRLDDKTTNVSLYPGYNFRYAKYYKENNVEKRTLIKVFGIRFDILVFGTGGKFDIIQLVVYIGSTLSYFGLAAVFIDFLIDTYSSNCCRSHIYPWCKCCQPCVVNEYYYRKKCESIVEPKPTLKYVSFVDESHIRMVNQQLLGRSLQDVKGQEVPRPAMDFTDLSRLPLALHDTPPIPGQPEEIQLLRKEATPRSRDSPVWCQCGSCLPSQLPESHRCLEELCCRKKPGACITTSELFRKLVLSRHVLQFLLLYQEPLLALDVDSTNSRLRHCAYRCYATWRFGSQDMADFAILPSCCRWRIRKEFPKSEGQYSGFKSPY
# [2] = tested on: chronic interstitial cystitis; assay: Example 13: chronic interstitial cystitis; type: in vivo, human; conditions: for effect on symptoms (prior treatment): in vivo
# ALS = assay: Example 18: amyotrophic lateral sclerosis; type: in vivo, human
# terminal cancer patients = assay: Example 17: diverse cancer, palliative; type: in vivo, human; conditions: for time to relief of pain, nausea and/or extreme fatigue: continuous subcutaneous 1 mg/kg/hr; for SIP68: 10 patients, before treatment 48 (range 18-68)
# [3] = Examples 1-6: safety (ECG, metHb, confusion); conditions: for Blood metHb: within the normal range
# COVID-19 [4] = type: in vivo
# [5] = tested on: renal function impairment; assay: Example 16: advanced cervix carcinoma and renal dysfunction; type: in vivo, human; conditions: continuous subdermal 1 mg/kg/hr
# COVID-19 [6] = assay: Example 7: COVID-19 case; type: in vivo, human
# From the text: On Mar. 24, 2020, a person developed cough, dyspnoea, myalgia, pain in hip and groin, shivers but no fever. A COVID-19 test was not performed. This occurred one week after closely working together with a colleague who developed proven severe COVID-19 requiring hospital admission.
# On Jul. 12, 2020, (day 1) the patient developed new symptoms comprising shivers, joint pain (knees, hips, shoulders) and conjunctivitis of the left eye. They reported sick at work. The infection probably occurred on Jul. 1, 2020. On that day they met many people during their work at the office and in the evening they went for a drink in a bar with a few colleagues. The infection occurred despite social distancing and hand sanitising. At that time no one wore a face mask. […] On July 21 (day 10), 2020, the IgA antibody test for COVID-19 result was positive.
# A few hours later a clinical deterioration occurred with extreme fatigue, chest pain and pain in the right upper arm. The treatment was converted to transdermal lidocaine cream. […] As much as 400 mg cream is applied over the skin and covered by Tegaderm transparent wound dressing. […] But after 6 hours the infusion rate was increased to 63 mg/hour (1 mg/kg/hr) due to persistent symptoms.
# Day 85, after almost 3 weeks with no symptoms other than a fluctuating pain in the upper arm, the prickling sensations of the lung returned. SpO2 96%, HR 90/min, BP 95/68 mm Hg, temperature […]. […] Inhalation of the lidocaine solution was avoided.
# rheumatoid arthritis = assay: Example 30: rheumatoid arthritis; design: species or system human; conditions: in vivo
# [7] = tested on: posttraumatic epileptic seizures; assay: Example 21: posttraumatic epileptic seizures; type: in vivo, human
# ulcerative colitis = assay: Example 27: ulcerative colitis; type: in vivo, human
# acute lumbago = assay: Example 32: acute lumbago; type: in vivo, human; conditions: sublingual 4×100 mg/d, after 30 minutes
# diabetic polyneuropathy = assay: Example 23: diabetic polyneuropathy; type: in vivo, human
# Alzheimer's disease = assay: Example 19: Alzheimer's dementia; type: in vivo, human; conditions: sublingual 4×100 mg/d, after 3 months; before 15
# ischaemic cardiomyopathy = assay: Example 31: ischaemic cardiomyopathy; type: in vivo, human
# SLE peritonitis = assay: Example 33: systemic lupus erythematosus; type: in vivo, human
# [8] = tested on: inflammatory bowel disease with perianal fistulae; assay: Example 28: inflammatory bowel disease with perianal fistulae; type: in vivo; conditions: dog, 4×100 mg/d applied into the largest fistula, after 1 week
# [9] = tested on: idiopathic Parkinson's disease
# COPD = assay: Example 25: COPD; type: in vivo, human; conditions: sublingual 4×100 mg/d, after 3 months; before 60%
# [10] = sublingual 4×100 mg/d, after 1 month
compound,measurement,setting,value
CN(C)C(=O)Oc1ccc[n+](C)c1 [mestinon],efficacy during influenza A infection,myasthenia gravis; oral 4×60 mg/d,no longer effective
CN1CC[C@]23c4c5ccc(O)c4O[C@H]2[C@@H](O)C=C[C@H]3[C@H]1C5 [Morphine],effect on herpes zoster pain,[1]; before lidocaine treatment,did not subside the pain
same,side effect,[1]; in vivo,developed obstipation
"COC[C@H](O)Cn1c(=O)cnn(-c2ccc(Cl)c(C(=O)NCC3(O)CCCCCC3)c2)c1=O [CE-224,535 500]",outcome of oral administration,P2X7R,without great success
COc1ccc2c3c1O[C@H]1C(=O)CC[C@@]4(O)[C@@H](C2)N(C)CC[C@]314 [Oxycodone],effect on symptoms (prior treatment),[2],had no effect on their symptoms
CCN(CC)CC(=O)Nc1c(C)cccc1C [lidocaine],symptoms,"[2]; continuous subcutaneous 1 mg/kg/hr, after 2 days",practically free of symptoms
same,MRC muscle strength: Upper arm abduction left,"ALS; six months, sublingual 4×100 mg/d, before 4",5
same,MRC muscle strength: Foot extension left,"ALS; six months, before 1",2
same,MRC muscle strength: Foot extension right,"ALS; six months, before 1",2
same,MRC muscle strength: Foot flexion left,"ALS; six months, before 2",3
same,MRC muscle strength: Foot flexion right,"ALS; six months, before 2",3
same,MRC muscle strength: Elbow flexion left,"ALS; six months, before 4",4
same,MRC muscle strength: Elbow flexion right,"ALS; six months, before 4",4
same,MRC muscle strength: Knee flexion left,"ALS; six months, before 4",5
same,MRC muscle strength: Knee flexion right,"ALS; six months, before 4",5
same,MRC muscle strength: Upper arm abduction right,"ALS; six months, before 4",5
same,muscle cramping,"ALS; sublingual 4×100 mg/d, after one week",gradually disappeared
same,"time to relief of pain, nausea and/or extreme fatigue",terminal cancer patients; 7 of 10 patients,≤ 2 h
same,SIP68,terminal cancer patients; after 3 days,33 (range 12-58)
same,SIP68,terminal cancer patients; after 7 days,28 (range 12-56)
same,"time to relief of pain, nausea and/or extreme fatigue",terminal cancer patients; remaining patients,≤ 48 h
same,new ECG changes during treatment with lidocaine,[3]; Patient 1,No new ECG changes
same,Blood metHb,[3]; Patient 1,0.3-0.8%
same,new ECG changes during treatment with lidocaine,[3]; Patient 2,No new ECG changes
same,signs of confusion after extubation,"[3]; Patient 2, day 22, on lidocaine",no signs of confusion
same,Blood metHb,[3]; Patient 2,0.1-0.6%
same,new ECG changes during treatment with lidocaine,[3]; Patient 3,No new ECG changes
same,signs of confusion after extubation,"[3]; Patient 3, day 5",no signs of confusion
same,Blood metHb,[3]; Patient 3,0.1-0.4%
same,new ECG changes during treatment with lidocaine,[3]; Patient 4,No new ECG changes
same,signs of confusion after extubation,[3]; Patient 4,no signs of confusion
same,Blood metHb,[3]; Patient 4,0.1-0.3%
same,new ECG changes during treatment with lidocaine,[3]; Patient 5,No new ECG changes
same,signs of confusion after extubation,"[3]; Patient 5, day 10",no signs of confusion
same,Blood metHb,[3]; Patient 5,0.1-0.3%
same,new ECG changes during treatment with lidocaine,[3]; Patient 6,No new ECG changes
same,signs of confusion after extubation,"[3]; Patient 6, day 10",no signs of confusion
same,Blood metHb,[3]; Patient 6,0.1-0.3%
same,symptoms,"polymyalgia rheumatica; nocturnal continuous subdermal 0.5 mg/kg/hr, 8 hours, 2 x/week",disappeared after the first treatment
same,time to disappearance of symptoms,polymyalgia rheumatica; sublingual 2×60 mg/d,≤ 1 h
same,all symptoms except dry mouth feelings and mild fatigue,"COVID-19 [4]; day 8, sublingual 3×60 mg/d",disappeared completely
same,"runny nose, headache, neck pain and neck stiffness","COVID-19 [4]; sublingual 5×60 mg, 24 hours after initiation",disappeared
same,renal function,[5],improved
same,symptoms,"COVID-19 [6]; continuous subdermal 0.5 mg/kg/hr, after a few hours (March 2020)",practically free of symptoms
same,symptoms,"COVID-19 [6]; day 11, infusion 24 hours per day",improved gradually
same,symptoms,"COVID-19 [6]; day 12-13, subdermal 0.63 mg/kg/hr plus amoxicilline",improved significantly
same,clinical improvement,"COVID-19 [6]; day 18, subdermal 40 mg/hour, after 1 hour",clinical improvement was noticeable
same,symptoms,"COVID-19 [6]; day 18, subdermal 63 mg/hour (1 mg/kg/hr)",the symptoms disappeared with the exception of the pain in the upper arm
same,symptoms,"COVID-19 [6]; day 23, lidocaine infusion",reduced the symptoms to tolerable levels
same,time to improvement of symptoms,"COVID-19 [6]; day 46, continuous subdermal 0.63 mg/kg/hr",≤ 30 min
same,symptoms,"COVID-19 [6]; day 61, continuous subdermal 0.63 mg/kg/hr",the symptoms subsided
same,time to disappearance of prickling sensations and oppressive feeling on chest,"COVID-19 [6]; from day 85, sublingual 3×100 mg/d",20 min
same,symptoms after relapse,COVID-19 [6]; reinitiated continuous subcutaneous infusion,subsided again
same,symptoms,"COVID-19 [6]; subdermal 0.63 mg/kg/hr, day 1 (Jul. 12, 2020)",improved within a few hours
same,clinical condition,"COVID-19 [6]; subdermal infusion reinitiated Apr. 1, 2020, after a few days",the clinical condition improved
O=C(NCC12CC3CC(CC(C3)C1)C2)c1cc(CCCNCCCO)ccc1Cl [AZD9056],outcome of oral administration,P2X7R,without great success
tocilizumab: disease-modifying antirheumatic drug,effect on symptoms (prior treatment),rheumatoid arthritis,did not improve the symptoms
CCN(CC)CC(=O)Nc1c(C)cccc1C [Lidocaine hydrochloride],EEG epileptic activity of the brain,[7]; subdermal 1 mg/kg/hour,had disappeared
same,time to disappearance of seizures,"[7]; subdermal 1 mg/kg/hour, 20 mg/ml solution",≤ 30 min
CN1C(=O)CN=C(c2ccccc2)c2cc(Cl)ccc21 [diazepam],effect on generalised epileptic seizures,[7]; repeated 10 mg intravenous,had no effect
CN(Cc1cnc2nc(N)nc(N)c2n1)c1ccc(C(=O)N[C@@H](CCC(=O)O)C(=O)O)cc1 [methotrexate],effect on symptoms (prior treatment),rheumatoid arthritis,did not improve the symptoms
Nc1ccc(O)c(C(=O)O)c1 [mesalamine],response of symptoms in this exacerbation,ulcerative colitis; oral CR 3×400 mg/d,did not respond
CC(=O)Nc1ccc(O)cc1 [paracetamol],effect on symptoms (prior treatment),[2],had no effect on their symptoms
"CCN(CC)CC(=O)Nc1c(C)cccc1C [lidocaine base, lidocaine]",symptoms disappeared,acute lumbago,95%
same,muscle strength of hands,diabetic polyneuropathy; after 3 months,improved significantly
same,tingling feelings in hands and feet,"diabetic polyneuropathy; sublingual 4×100 mg/d, after a few days",disappeared completely
same,MMSE Test total score,Alzheimer's disease,23
same,chest pain episodes,ischaemic cardiomyopathy; after 3 weeks,significantly diminished
same,cardiac ejection fraction (transthoracic echocardiographic),"ischaemic cardiomyopathy; sublingual 4×100 mg/d, after 3 months, before 31%",42%
same,abdominal distension,SLE peritonitis; after 2 weeks,disappeared completely
same,clinical symptoms,SLE peritonitis; sublingual 4×100 mg/d,disappeared in the course of 6 days
same,oozing opaque fluid secretion and bad odour,[8],had disappeared
same,tendency to fall,[9]; [10],gradually improved
same,tremor,[9]; [10],almost disappeared
same,symptoms,"ulcerative colitis; sublingual 4×100 mg/d, after 3 days",completely disappeared
same,influenza A viral infection symptoms,myasthenia gravis; sublingual 4×100 mg/d,disappeared almost completely
same,time to significant improvement of muscle weakness of arms and hand,myasthenia gravis; sublingual 4×100 mg/d,≤ 4 h
same,FEV1,COPD,84%
N[C@@H](Cc1ccc(O)c(O)c1)C(=O)O [levodopa],side effect after increasing dosage,[9]; in vivo,levodopa-induced chorea
same,symptoms (prior treatment),"[9]; initially, symptoms returned after 6 years",the symptoms improved clearly
